Source: PMC7914897, “Cytotoxic Potential of a-Azepano- and 3-Amino-3,4-SeCo-Triterpenoids” (International Journal of Molecular Sciences, 2021)

Key:
DU-145 (Prostate cancer) = assay: NCI-60 screen (SRB, 48 h); settings: Homo sapiens
TK-10 (Renal cancer) = assay: NCI-60 screen (SRB, 48 h); settings: Homo sapiens
SF-539 (CNS cancer) = assay: NCI-60 screen (SRB, 48 h); settings: Homo sapiens
Ovarian Cancer subpanel = assay: NCI-60 screen, subpanel; settings: Homo sapiens
MOLT-4 (Leukemia) = assay: NCI-60 screen (SRB, 48 h); settings: Homo sapiens
[1] = tested on: NCI-H460 (NSC lung cancer); assay: NCI-60 screen (SRB, 48 h); settings: Homo sapiens
Leukemia subpanel = assay: cells; settings: Homo sapiens
Breast cancer subpanel = assay: NCI-60 screen, subpanel; settings: Homo sapiens
U251 (CNS cancer) = assay: NCI-60 screen (SRB, 48 h); settings: Homo sapiens
[2] = tested on: NCI-H23 (NSC lung cancer); assay: NCI-60 screen (SRB, 48 h); settings: Homo sapiens
LOX IMVI (Melanoma) = assay: NCI-60 screen (SRB, 48 h); type: cell-based; settings: Homo sapiens
HT29 (Colon cancer) = assay: NCI-60 screen (SRB, 48 h); settings: Homo sapiens
SK-MEL-28 (Melanoma) = assay: NCI-60 screen (SRB, 48 h); settings: Homo sapiens
HS 578T (Breast cancer) = assay: NCI-60 screen (SRB, 48 h); settings: Homo sapiens
SF-268 (CNS cancer) = assay: NCI-60 screen (SRB, 48 h); settings: Homo sapiens
OVCAR-8 (Ovarian cancer) = assay: NCI-60 screen (SRB, 48 h); settings: Homo sapiens
[3] = tested on: MDA-MB-468 (Breast cancer); assay: cells; settings: Homo sapiens
SK-MEL-5 (Melanoma) = assay: NCI-60 screen (SRB, 48 h)
BT-549 (Breast cancer) = assay: NCI-60 screen (SRB, 48 h); type: cell-based; settings: Homo sapiens
HOP-62 (NSC lung cancer) = assay: NCI-60 screen (SRB, 48 h); settings: Homo sapiens
[4] = tested on: NCI/ADR-RES (Ovarian cancer); assay: NCI-60 screen (SRB, 48 h); settings: Homo sapiens
OVCAR-3 (Ovarian cancer) = assay: cells; settings: Homo sapiens
MDA-MB-435 (Melanoma) = assay: NCI-60 screen (SRB, 48 h); type: cell-based; settings: Homo sapiens
OVCAR-4 (Ovarian cancer) = assay: NCI-60 screen (SRB, 48 h); type: cell-based; settings: Homo sapiens
Colon Cancer subpanel = assay: NCI-60 screen, subpanel; settings: Homo sapiens

C=C(C)C1CCC2(CO)CCC3(C)C(CCC4C5(C)CCCNC(C)(C)C5CCC43C)C12 (centres unmarked) [Compound 1, Azepanobetulin]
GI50 (DU-145 (Prostate cancer); DU-145): 3.02 µM | IC (TGI) (DU-145 (Prostate cancer); DU-145, 48 h, read-out: TGI): 3.02 µM | CC50 (DU-145 (Prostate cancer); DU-145, read-out: LC50): 5.58 µM | GI50 (TK-10 (Renal cancer); TK-10): 1.76 µM | IC (TGI) (TK-10 (Renal cancer); TK-10, 48 h, read-out: TGI): 3.5 µM | CC50 (TK-10 (Renal cancer); TK-10, read-out: LC50): 6.96 µM | GI50 (SF-539 (CNS cancer); SF-539): 1.58 µM | IC (TGI) (SF-539 (CNS cancer); SF-539, 48 h, read-out: TGI): 3.01 µM | CC50 (SF-539 (CNS cancer); SF-539, read-out: LC50): 5.72 µM | IC (TGI) (Ovarian Cancer subpanel; 48 h, read-out: TGI MG_MID): 3.18 µM | GI50 (Ovarian Cancer subpanel; read-out: GI50 MG_MID): 1.65 µM | CC50 (Ovarian Cancer subpanel; read-out: LC50 MG_MID): 6.24 µM | GI50 (MOLT-4 (Leukemia); MOLT-4): 1.79 µM | IC (TGI) (MOLT-4 (Leukemia); MOLT-4, 48 h, read-out: TGI): 4.5 µM | CC50 (MOLT-4 (Leukemia); MOLT-4, read-out: LC50): > 100 µM | GI50 ([1]; NCI-H460): 1.63 µM | IC (TGI) ([1]; NCI-H460, 48 h, read-out: TGI): 3.21 µM | CC50 ([1]; NCI-H460, read-out: LC50): 6.3 µM | IC (TGI) (Leukemia subpanel; 48 h, read-out: TGI MG_MID): 4.3 µM | GI50 (Leukemia subpanel; read-out: GI50 MG_MID): 1.69 µM | CC50 (Leukemia subpanel; read-out: LC50 MG_MID): > 100 µM | IC (TGI) (Breast cancer subpanel; 48 h, read-out: TGI MG_MID): 3.55 µM | GI50 (Breast cancer subpanel; read-out: GI50 MG_MID): 1.71 µM | CC50 (Breast cancer subpanel; read-out: LC50 MG_MID): 11.5 µM | GI50 (U251 (CNS cancer); U-251): 1.65 µM | IC (TGI) (U251 (CNS cancer); U-251, 48 h, read-out: TGI): 3.09 µM | CC50 (U251 (CNS cancer); U-251, read-out: LC50): 5.76 µM | GI50 ([2]; NCI-H23): 1.71 µM | IC (TGI) ([2]; NCI-H23, 48 h, read-out: TGI): 3.39 µM | CC50 ([2]; NCI-H23, read-out: LC50): 6.68 µM | IC (TGI) (LOX IMVI (Melanoma); 48 h): 3.03 µM | GI50 (LOX IMVI (Melanoma); read-out: GI50): 1.51 µM | GI50 (HT29 (Colon cancer); HT-29): 1.27 µM | IC (TGI) (HT29 (Colon cancer); HT-29, 48 h, read-out: TGI): 2.85 µM | GI50 (SK-MEL-28 (Melanoma); SK-MEL-28): 1.62 µM | IC (TGI) (SK-MEL-28 (Melanoma); SK-MEL-28, 48 h, read-out: TGI): 3.15 µM | CC50 (SK-MEL-28 (Melanoma); SK-MEL-28, read-out: LC50): 6.13 µM | GI50 (HS 578T (Breast cancer)): 1.99 µM | IC (TGI) (HS 578T (Breast cancer); 48 h, read-out: TGI): 4.79 µM | CC50 (HS 578T (Breast cancer); read-out: LC50): 31 µM | GI50 (SF-268 (CNS cancer); SF-268): 1.74 µM | IC (TGI) (SF-268 (CNS cancer); SF-268, 48 h, read-out: TGI): 3.54 µM | CC50 (SF-268 (CNS cancer); SF-268, read-out: LC50): 7.19 µM | GI50 (OVCAR-8 (Ovarian cancer); OVCAR-8): 1.83 µM | IC (TGI) (OVCAR-8 (Ovarian cancer); OVCAR-8, 48 h, read-out: TGI): 3.51 µM | CC50 (OVCAR-8 (Ovarian cancer); OVCAR-8, read-out: LC50): 6.73 µM | GI50 ([3]; MDA-MB-468): 1.66 µM | IC (TGI) ([3]; MDA-MB-468, 48 h, read-out: TGI): 3.38 µM | CC50 ([3]; MDA-MB-468, read-out: LC50): 6.88 µM | GI50 (SK-MEL-5 (Melanoma); Homo sapiens, SK-MEL-5): 1.38 µM | IC (TGI) (SK-MEL-5 (Melanoma); Homo sapiens, SK-MEL-5, 48 h, read-out: TGI): 2.7 µM | CC50 (SK-MEL-5 (Melanoma); Homo sapiens, SK-MEL-5, read-out: LC50): 5.28 µM | Growth % of the Most Sensitive Cell Lines (SK-MEL-5 (Melanoma); SK-MEL-5, 1 dose 10 µM): −82.49% | GI50 (BT-549 (Breast cancer); BT-549): 1.79 µM | IC (TGI) (BT-549 (Breast cancer); BT-549, 48 h): 3.46 µM | GI50 (HOP-62 (NSC lung cancer); HOP-62): 1.81 µM | IC (TGI) (HOP-62 (NSC lung cancer); HOP-62, 48 h, read-out: TGI): 3.42 µM | CC50 (HOP-62 (NSC lung cancer); HOP-62, read-out: LC50): 6.46 µM | GI50 [4]: 1.63 µM | IC (TGI) ([4]; 48 h, read-out: TGI): 3.18 µM | CC50 ([4]; read-out: LC50): 6.18 µM | GI50 (OVCAR-3 (Ovarian cancer); OVCAR-3): 1.66 µM | IC (TGI) (OVCAR-3 (Ovarian cancer); OVCAR-3, 48 h, read-out: TGI): 3.13 µM | CC50 (OVCAR-3 (Ovarian cancer); OVCAR-3, read-out: LC50): 5.91 µM | IC (TGI) (MDA-MB-435 (Melanoma); MDA-MB-435, 48 h, read-out: TGI): 2.95 µM | GI50 (MDA-MB-435 (Melanoma); MDA-MB-435, read-out: GI50): 1.56 µM | IC (TGI) (OVCAR-4 (Ovarian cancer); OVCAR-4, 48 h): 2.81 µM | GI50 (OVCAR-4 (Ovarian cancer); OVCAR-4, read-out: GI50): 1.45 µM | IC (TGI) (Colon Cancer subpanel; 48 h, read-out: TGI MG_MID): 3.01 µM | GI50 (Colon Cancer subpanel; read-out: GI50 MG_MID): 1.51 µM | CC50 (Colon Cancer subpanel; read-out: LC50 MG_MID): 5.98 µM
